Experimental data reported in patent publication US8455497B2, “Inhibitors of aspartyl protease” (Vertex Pharmaceuticals Incorporated, priority 1999, dated 2013).

Key:
HIV-1 (strain IIIB) = assay: Antiviral activity assay in MT4 cells (propidium iodide based); assay type: cell-based; details: Human immunodeficiency virus 1, IIIB; wild type HIV-1 virus, MT4 cells; read-out: Wildtype virus - IC50
How it was run: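 Compound serial dilutions in RPMI/FCS received MT4 cells pre-infected 1 hr at 37°C with HIV-1 IIIB at 100×TCID50. After 5 days' culture and Nonidet-40 lysis, well DNA content was measured by propidium iodide dye; mock-infected cells served as control.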

[1] = system: D545701-14 multi protease inhibitor resistant virus; assay: Anti-viral activity against resistant virus D545701-14 in MT4 cells; assay type: cell-based, HIV-1; details: Human immunodeficiency virus 1, MT4, read-out: D545701-14 mutant - IC50, D545701-14 multi protease inhibitor resistant virus, MT4 cells
[2] = system: EP13 multi protease inhibitor resistant virus; assay: Anti-viral activity against resistant virus EP13 in MT4 cells; assay type: cell-based, HIV-1; details: Human immunodeficiency virus 1, MT4, read-out: EP13 mutant IC50, EP13 multi protease inhibitor resistant virus, MT4 cells
How it was run: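 MT4 cells infected for 1 h at 37 °C, MOI 100×TCID50, then diluted 6-fold onto pre-diluted compound and cultured 5 days (5% CO2). Viable-cell DNA content estimated by propidium iodide. EP13 carries protease mutations M46I, L63P, A71V, V82F/L, I84V, no RT mutations.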

SMILES | IC50 (HIV-1 (strain IIIB)) [nM] | IC50 [1] [nM] | IC50 [2] [nM]
CC(C)CN(C[C@@H](O)[C@H](Cc1ccc(OCc2ccc(F)c(F)c2)cc1)NC(=O)O[C@H]1CO[C@H]2OCC[C@H]21)S(=O)(=O)c1ccc2c(c1)OCO2 [Compound 379, (3R,3aS,6aR)-hexahydrofuro[2,3-b]furan-3-yl (1S,2R)-3[(1,3-benzodioxol-5-ylsulfonyl)(isobutyl)amino]-1-{4-[(3,4-difluorobenzyl)oxy]benzyl}-2-hydroxypropylcarbamate] | 1 to 10 | 1 to 10 | 1 to 10
CC(C)CN(C[C@@H](O)[C@H](Cc1ccc(OCc2cc(F)cc(F)c2)cc1)NC(=O)O[C@H]1CO[C@H]2OCC[C@H]21)S(=O)(=O)c1ccc2c(c1)OCO2 [Compound 380, (3R,3aS,6aR)-hexahydrofuro[2,3-b]furan-3-yl (1S,2R)-3-[(1,3-benzodioxol-5-ylsulfonyl)(isobutyl)amino]-1-{4-[(3,5-difluorobenzyl)oxy]benzyl}-2-hydroxypropylcarbamate] | 1 to 10 | 10 to 100 | 1 to 10
CC(C)CN(C[C@@H](O)[C@H](Cc1ccc(OCc2ccc(C#N)cc2)cc1)NC(=O)O[C@H]1CO[C@H]2OCC[C@H]21)S(=O)(=O)c1ccc2c(c1)OCO2 [Compound 381, (3R,3aS,6aR)-hexahydrofuro[2,3-b]furan-3-yl (1S,2R)-3-[(1,3-benzodioxol-5-ylsulfonyl)(isobutyl)amino]-1-{4-[(4-cyanobenzyl)oxy]benzyl}-2-hydroxypropylcarbamate] | 1 to 10 | 1 to 10 | 1 to 10
CC(C)CN(C[C@@H](O)[C@H](Cc1ccc(OCc2ccccc2C#N)cc1)NC(=O)O[C@H]1CO[C@H]2OCC[C@H]21)S(=O)(=O)c1ccc2c(c1)OCO2 [Compound 382, (3R,3aS,6aR)-hexahydrofuro[2,3-b]furan-3-yl (1S,2R)-3-[(1,3-benzodioxol-5-ylsulfonyl)(isobutyl)amino]-1-{4-[(2-cyanobenzyl)oxy]benzyl}-2-hydroxypropylcarbamate] | 1 to 10 | 1 to 10 | 1 to 10
CC(C)CN(C[C@@H](O)[C@H](Cc1ccc(OCc2cccc([N+](=O)[O-])c2)cc1)NC(=O)O[C@H]1CO[C@H]2OCC[C@H]21)S(=O)(=O)c1ccc2c(c1)OCO2 [Compound 384, (3R,3aS,6aR)-hexahydrofuro[2,3-b]furan-3-yl (1S,2R)-3-[(1,3-benzodioxol-5-ylsulfonyl)(isobutyl)amino]-2-hydroxy-1-{4-[(3-nitrobenzyl)oxy]benzyl}propylcarbamate] | 1 to 10 | 1 to 10 | 1 to 10
Cc1noc(C)c1COc1ccc(C[C@H](NC(=O)O[C@H]2CO[C@H]3OCC[C@H]32)[C@H](O)CN(CC(C)C)S(=O)(=O)c2ccc3c(c2)OCO3)cc1 [Compound 385, (3R,3aS,6aR)-hexahydrofuro[2,3-b]furan-3-yl (1S,2R)-3-[(1,3-benzodioxol-5-ylsulfonyl)(isobutyl)amino]-1-{4-[(3,5-dimethyl-4-isoxazolyl)methoxy]benzyl}-2-hydroxypropylcarbamate] | 1 to 10 | 10 to 100 | 1 to 10
CC(C)CN(C[C@@H](O)[C@H](Cc1ccc(OCc2nnsc2Cl)cc1)NC(=O)O[C@H]1CO[C@H]2OCC[C@H]21)S(=O)(=O)c1ccc2c(c1)OCO2 [Compound 386, (3R,3aS,6aR)-hexahydrofuro[2,3-b]furan-3-yl (1S,2R)-3-[(1,3-benzodioxol-5-ylsulfonyl)(isobutyl)amino]-1-{4-[(5-chloro-1,2,3-thiadiazol-4-yl)methoxy]benzyl}-2-hydroxypropylcarbamate] | 1 to 10 | 10 to 100 | 1 to 10
CC(C)CN(C[C@@H](O)[C@H](Cc1ccc(OCc2csc3ccccc23)cc1)NC(=O)O[C@H]1CO[C@H]2OCC[C@H]21)S(=O)(=O)c1ccc2c(c1)OCO2 [Compound 387, (3R,3aS,6aR)-hexahydrofuro[2,3-b]furan-3-yl (1S,2R)-3-[(1,3-benzodioxol-5-ylsulfonyl)(isobutyl)amino]-1-[4-(1-benzothien-3-ylmethoxy)benzyl]-2-hydroxypropylcarbamate] | 1 to 10 | 1 to 10 | 1 to 10
CC(C)CN(C[C@@H](O)[C@H](Cc1ccc(OCc2ccccc2CS(=O)(=O)c2ccccc2)cc1)NC(=O)O[C@H]1CO[C@H]2OCC[C@H]21)S(=O)(=O)c1ccc2c(c1)OCO2 [Compound 388, (3R,3aS,6aR)-hexahydrofuro[2,3-b]furan-3-yl (1S,2R)-3-[(1,3-benzodioxol-5-ylsulfonyl)(isobutyl)amino]-2-hydroxy-1-[4-{(2-[(phenylsulfonyl)methyl]benzyl}oxy)benzyl]propylcarbamate] | 1 to 10 | 1 to 10 | 1 to 10
Cc1noc(C)c1-c1nc(COc2ccc(C[C@H](NC(=O)O[C@H]3CO[C@H]4OCC[C@H]43)[C@H](O)CN(CC(C)C)S(=O)(=O)c3ccc4c(c3)OCO4)cc2)no1 [Compound 389, (3R,3aS,6aR)-hexahydrofuro[2,3-b]furan-3-yl (1S,2R)-3-[(1,3-benzodioxol-5-ylsulfonyl)(isobutyl)amino]-1-(4-{[5-(3,5-dimethyl-4-isoxazolyl)-1,2,4-oxadiazol-3-yl]methoxy}benzyl)-2-hydroxypropylcarbamate] | 1 to 10 | 1 to 10 | 1 to 10
COc1ccc(-c2nc(COc3ccc(C[C@H](NC(=O)O[C@H]4CO[C@H]5OCC[C@H]54)[C@H](O)CN(CC(C)C)S(=O)(=O)c4ccc5c(c4)OCO5)cc3)no2)cc1 [Compound 391, (3R,3aS,6aR)-hexahydrofuro[2,3-b]furan-3-yl (1S,2R)-3-[(1,3-benzodioxol-5-ylsulfonyl)(isobutyl)amino]-2-hydroxy-1-(4-{[5-(4-methoxyphenyl)-1,2,4-oxadiazol-3-yl]methoxy}benzyl)propylcarbamate] | 1 to 10 | 1 to 10 | 1 to 10
CC(C)CN(C[C@@H](O)[C@H](Cc1ccc(OCc2ccc(-c3ccccc3C#N)cc2)cc1)NC(=O)O[C@H]1CO[C@H]2OCC[C@H]21)S(=O)(=O)c1ccc2c(c1)OCO2 [Compound 392, (3R,3aS,6aR)-hexahydrofuro[2,3-b]furan-3-yl (1S,2R)-3-[(1,3-benzodioxol-5-ylsulfonyl)(isobutyl)amino]-1-{4-[(2′-cyano[1,1-biphenyl]-4-yl)methoxy]benzyl}-2-hydroxypropylcarbamate] | 1 to 10 | 1 to 10 | 1 to 10
CC(C)CN(C[C@@H](O)[C@H](Cc1ccc(OCC#N)cc1)NC(=O)O[C@H]1CO[C@H]2OCC[C@H]21)S(=O)(=O)c1ccc2c(c1)OCO2 [Compound 393, (3R,3aS,6aR)-hexahydrofuro[2,3-b]furan-3-yl (1S,2R)-3-[(1,3-benzodioxol-5-ylsulfonyl)(isobutyl)amino]-1-[4-(cyanomethoxy)benzyl]-2-hydroxypropylcarbamate] | 10 to 100 | 10 to 100 | 10 to 100
O=C(N[C@@H](Cc1ccc(OCc2ccccc2)cc1)[C@H](O)CN(CC1CCCC1)S(=O)(=O)c1ccc2c(c1)OCO2)O[C@H]1CO[C@H]2OCC[C@H]21 [Compound 395, (3R,3aS,6aR)-hexahydrofuro[2,3-b]furan-3-yl (1S,2R)-3-[(1,3-benzodioxol-5-ylsulfonyl) (cyclopentylmethyl)amino]-1-[4-(benzyloxy)benzyl]-2-hydroxypropylcarbamate] | 1 to 10 | 1 to 10 | 1 to 10
N#CCOc1ccc(C[C@H](NC(=O)O[C@H]2CO[C@H]3OCC[C@H]32)[C@H](O)CN(CC2CCCC2)S(=O)(=O)c2ccc3c(c2)OCO3)cc1 [Compound 397, (3R,3aS,6aR)-hexahydrofuro[2,3-b]furan-3-yl (1S,2R)-3-[(1,3-benzodioxol-5-ylsulfonyl)(cyclopentylmethyl)amino]-1-[4-(cyanomethoxy)benzyl]-2-hydroxypropylcarbamate] | 10 to 100 | 1 to 10 | 1 to 10
